Data published in the kinase profiling compilation of Christmann-Franck et al. (2016).

Key:
Test in all cases: radiometric filter-binding kinase assay, Kinase HotSpot
Details in all cases: compound 0.5 µM; ATP 10 µM
BMX (human) = BMX (human) (UniProt P51813)
BRSK2 (human) = BRSK2 (human) (UniProt Q8IWQ3)
CDK6 CCND3 (human) = CDK6 CCND3 (human) (UniProt P30281+Q00534)
CHEK2 (human) = CHEK2 (human) (UniProt O96017)
CLK2 (human) = CLK2 (human) (UniProt P49760)
CSK (human) = CSK (human) (UniProt P41240)
CSNK1D (human) = CSNK1D (human) (UniProt P48730)
CSNK2A2 (human) = CSNK2A2 (human) (UniProt P19784)
Chain of CSNK2A2 (human) (P19784 whole entry, looked up): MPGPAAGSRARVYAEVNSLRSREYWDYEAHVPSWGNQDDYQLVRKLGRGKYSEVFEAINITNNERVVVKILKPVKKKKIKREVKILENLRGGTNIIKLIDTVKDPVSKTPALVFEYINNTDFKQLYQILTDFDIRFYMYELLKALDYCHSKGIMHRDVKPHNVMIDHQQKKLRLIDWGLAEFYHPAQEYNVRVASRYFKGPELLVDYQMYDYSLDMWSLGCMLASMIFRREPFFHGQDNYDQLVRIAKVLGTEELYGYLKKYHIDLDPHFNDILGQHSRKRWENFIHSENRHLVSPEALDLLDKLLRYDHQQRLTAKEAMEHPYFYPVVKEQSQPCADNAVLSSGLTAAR

DAPK3 (human) = DAPK3 (human) (UniProt O43293)
Chain of DAPK3 (human) (O43293 whole entry, looked up): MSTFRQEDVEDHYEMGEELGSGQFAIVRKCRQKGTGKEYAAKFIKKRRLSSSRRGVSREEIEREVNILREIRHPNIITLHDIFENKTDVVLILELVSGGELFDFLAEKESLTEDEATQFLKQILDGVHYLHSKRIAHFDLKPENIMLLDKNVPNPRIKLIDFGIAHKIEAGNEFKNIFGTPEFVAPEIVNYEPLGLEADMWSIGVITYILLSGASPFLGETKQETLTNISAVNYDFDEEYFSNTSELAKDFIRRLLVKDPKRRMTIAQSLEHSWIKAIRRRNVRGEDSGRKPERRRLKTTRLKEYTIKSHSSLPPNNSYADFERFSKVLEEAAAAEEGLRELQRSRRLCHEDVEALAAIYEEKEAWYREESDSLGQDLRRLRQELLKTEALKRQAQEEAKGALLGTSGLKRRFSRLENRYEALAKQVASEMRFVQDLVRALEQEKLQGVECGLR

DMPK (human) = DMPK (human) (UniProt Q09013)
DYRK1B (human) = DYRK1B (human) (UniProt Q9Y463)
EPHA5 (human) = EPHA5 (human) (UniProt P54756)
ERBB2 (human) = ERBB2 (human) (UniProt P04626)
FES (human) = FES (human) (UniProt P07332)
FGFR3 (human) = FGFR3 (human) (UniProt P22607)
FGR (human) = FGR (human) (UniProt P09769)
Chain of FGR (human) (P09769 whole entry, looked up): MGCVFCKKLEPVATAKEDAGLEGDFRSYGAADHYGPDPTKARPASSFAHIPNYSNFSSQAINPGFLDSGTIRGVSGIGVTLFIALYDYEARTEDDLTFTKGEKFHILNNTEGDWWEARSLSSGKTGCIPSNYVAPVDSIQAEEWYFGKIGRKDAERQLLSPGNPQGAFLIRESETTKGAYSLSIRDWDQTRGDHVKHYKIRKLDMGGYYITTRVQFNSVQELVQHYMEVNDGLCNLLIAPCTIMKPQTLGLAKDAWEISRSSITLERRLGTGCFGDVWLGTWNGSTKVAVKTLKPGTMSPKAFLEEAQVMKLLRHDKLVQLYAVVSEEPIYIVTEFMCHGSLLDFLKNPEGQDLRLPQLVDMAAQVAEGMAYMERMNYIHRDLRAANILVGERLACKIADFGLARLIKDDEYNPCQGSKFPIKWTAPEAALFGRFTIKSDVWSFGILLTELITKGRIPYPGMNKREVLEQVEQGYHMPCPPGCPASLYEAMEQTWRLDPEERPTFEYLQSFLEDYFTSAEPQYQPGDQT

FRK (human) = FRK (human) (UniProt P42685)
GRK6 (human) = GRK6 (human) (UniProt P43250)
GSK3B (human) = GSK3B (human) (UniProt P49841)
HIPK2 (human) = HIPK2 (human) (UniProt Q9H2X6)
HIPK4 (human) = HIPK4 (human) (UniProt Q8NE63)
JAK2 JH1 JH2 (human) = JAK2 JH1 JH2 (human) (UniProt O60674)
MAP3K10 (human) = MAP3K10 (human) (UniProt Q02779)
MAP4K4 (human) = MAP4K4 (human) (UniProt O95819)
MERTK (human) = MERTK (human) (UniProt Q12866)
NEK1 (human) = NEK1 (human) (UniProt Q96PY6)
NEK11 (human) = NEK11 (human) (UniProt Q8NG66)
NEK4 (human) = NEK4 (human) (UniProt P51957)
NTRK2 (human) = NTRK2 (human) (UniProt Q16620)
PRKCB1 (human) = PRKCB1 (human) (UniProt P05771)
PRKCD (human) = PRKCD (human) (UniProt Q05655)
PRKCH (human) = PRKCH (human) (UniProt P24723)
Chain of PRKCH (human) (P24723 whole entry, looked up): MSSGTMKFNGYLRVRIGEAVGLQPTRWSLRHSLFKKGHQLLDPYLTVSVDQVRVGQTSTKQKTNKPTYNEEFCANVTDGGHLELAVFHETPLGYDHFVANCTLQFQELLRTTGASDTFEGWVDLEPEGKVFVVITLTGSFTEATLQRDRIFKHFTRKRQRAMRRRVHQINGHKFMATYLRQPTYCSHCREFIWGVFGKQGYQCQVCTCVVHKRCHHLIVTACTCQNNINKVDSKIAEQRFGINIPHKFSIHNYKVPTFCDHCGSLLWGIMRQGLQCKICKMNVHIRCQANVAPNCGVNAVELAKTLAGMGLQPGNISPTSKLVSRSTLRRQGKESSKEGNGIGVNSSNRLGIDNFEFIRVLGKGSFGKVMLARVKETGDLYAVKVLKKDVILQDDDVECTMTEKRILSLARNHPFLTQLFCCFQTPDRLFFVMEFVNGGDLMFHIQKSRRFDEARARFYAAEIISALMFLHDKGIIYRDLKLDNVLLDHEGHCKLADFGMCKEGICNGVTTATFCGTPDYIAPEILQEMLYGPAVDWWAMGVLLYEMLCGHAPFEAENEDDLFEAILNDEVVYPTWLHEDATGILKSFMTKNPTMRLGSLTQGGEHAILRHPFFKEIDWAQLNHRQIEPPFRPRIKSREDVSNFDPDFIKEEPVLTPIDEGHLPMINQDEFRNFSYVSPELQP

PRKCI (human) = PRKCI (human) (UniProt P41743)
ROCK1 (human) = ROCK1 (human) (UniProt Q13464)
Chain of ROCK1 (human) (Q13464 whole entry, looked up): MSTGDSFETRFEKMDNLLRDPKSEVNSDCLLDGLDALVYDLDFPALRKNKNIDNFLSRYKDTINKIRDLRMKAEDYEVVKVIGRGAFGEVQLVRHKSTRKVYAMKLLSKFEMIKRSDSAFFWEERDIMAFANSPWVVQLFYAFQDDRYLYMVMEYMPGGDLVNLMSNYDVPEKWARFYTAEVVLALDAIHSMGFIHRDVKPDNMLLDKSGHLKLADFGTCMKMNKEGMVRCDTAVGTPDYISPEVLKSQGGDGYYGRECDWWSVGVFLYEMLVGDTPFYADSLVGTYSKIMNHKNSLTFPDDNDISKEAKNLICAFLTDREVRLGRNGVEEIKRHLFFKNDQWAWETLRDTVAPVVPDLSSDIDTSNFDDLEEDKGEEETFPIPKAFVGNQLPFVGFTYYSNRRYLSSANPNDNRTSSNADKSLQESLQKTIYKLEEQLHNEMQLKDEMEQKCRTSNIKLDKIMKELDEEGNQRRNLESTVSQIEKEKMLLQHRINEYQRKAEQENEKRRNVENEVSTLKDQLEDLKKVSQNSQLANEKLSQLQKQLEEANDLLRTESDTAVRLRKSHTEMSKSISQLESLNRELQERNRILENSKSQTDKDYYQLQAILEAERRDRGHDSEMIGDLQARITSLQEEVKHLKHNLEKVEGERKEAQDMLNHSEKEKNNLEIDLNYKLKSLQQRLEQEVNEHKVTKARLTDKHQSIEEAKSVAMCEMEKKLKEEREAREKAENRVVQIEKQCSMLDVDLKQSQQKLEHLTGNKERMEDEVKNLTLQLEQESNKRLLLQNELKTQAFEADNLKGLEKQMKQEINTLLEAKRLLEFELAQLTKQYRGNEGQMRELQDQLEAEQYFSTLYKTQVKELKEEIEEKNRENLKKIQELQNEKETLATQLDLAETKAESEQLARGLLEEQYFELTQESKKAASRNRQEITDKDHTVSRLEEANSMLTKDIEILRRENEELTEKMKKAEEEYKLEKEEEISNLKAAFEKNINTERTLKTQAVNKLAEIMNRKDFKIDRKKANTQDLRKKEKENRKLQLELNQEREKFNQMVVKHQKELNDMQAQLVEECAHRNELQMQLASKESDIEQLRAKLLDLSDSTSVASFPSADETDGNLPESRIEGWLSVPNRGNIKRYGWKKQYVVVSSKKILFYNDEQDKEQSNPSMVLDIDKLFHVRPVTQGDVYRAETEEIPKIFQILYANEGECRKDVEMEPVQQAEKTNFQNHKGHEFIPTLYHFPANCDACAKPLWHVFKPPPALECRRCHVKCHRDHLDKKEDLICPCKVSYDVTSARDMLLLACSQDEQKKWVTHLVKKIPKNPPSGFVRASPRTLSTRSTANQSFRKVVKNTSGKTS

SGK3 (human) = SGK3 (human) (UniProt Q96BR1)
SLK (human) = SLK (human) (UniProt Q9H2G2)
STK10 (human) = STK10 (human) (UniProt O94804)
STK24 (human) = STK24 (human) (UniProt Q9Y6E0)
Chain of STK24 (human) (Q9Y6E0 whole entry, looked up): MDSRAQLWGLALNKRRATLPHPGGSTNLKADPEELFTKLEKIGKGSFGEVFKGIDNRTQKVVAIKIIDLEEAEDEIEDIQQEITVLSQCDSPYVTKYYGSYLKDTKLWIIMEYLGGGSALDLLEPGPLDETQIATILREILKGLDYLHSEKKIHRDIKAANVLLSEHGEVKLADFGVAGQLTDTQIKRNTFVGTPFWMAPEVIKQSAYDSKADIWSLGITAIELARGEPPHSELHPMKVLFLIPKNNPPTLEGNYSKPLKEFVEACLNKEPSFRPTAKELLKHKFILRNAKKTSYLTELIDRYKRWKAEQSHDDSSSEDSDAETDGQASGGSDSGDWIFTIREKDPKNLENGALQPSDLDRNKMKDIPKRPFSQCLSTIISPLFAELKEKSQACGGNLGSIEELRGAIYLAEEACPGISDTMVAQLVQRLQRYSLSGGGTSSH

STK4 (human) = STK4 (human) (UniProt Q13043)
TEC (human) = TEC (human) (UniProt P42680)
Chain of TEC (human) (P42680 whole entry, looked up): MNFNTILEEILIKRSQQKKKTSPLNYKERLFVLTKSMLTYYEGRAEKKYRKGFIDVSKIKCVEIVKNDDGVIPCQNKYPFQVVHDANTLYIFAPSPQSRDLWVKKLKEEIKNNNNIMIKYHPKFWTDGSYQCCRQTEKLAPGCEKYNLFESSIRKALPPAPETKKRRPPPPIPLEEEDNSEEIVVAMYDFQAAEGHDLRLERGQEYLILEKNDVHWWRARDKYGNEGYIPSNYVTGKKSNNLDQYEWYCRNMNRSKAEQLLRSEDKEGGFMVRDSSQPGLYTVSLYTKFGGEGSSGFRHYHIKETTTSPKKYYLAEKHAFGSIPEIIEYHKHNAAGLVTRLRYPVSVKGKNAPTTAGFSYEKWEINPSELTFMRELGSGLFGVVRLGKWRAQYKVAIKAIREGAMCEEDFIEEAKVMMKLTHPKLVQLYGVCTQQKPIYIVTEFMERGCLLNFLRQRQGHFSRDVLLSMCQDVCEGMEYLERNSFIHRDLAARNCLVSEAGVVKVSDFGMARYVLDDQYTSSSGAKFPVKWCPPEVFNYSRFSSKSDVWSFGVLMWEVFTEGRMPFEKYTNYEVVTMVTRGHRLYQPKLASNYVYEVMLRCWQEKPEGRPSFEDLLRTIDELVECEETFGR

WEE1 (human) = WEE1 (human) (UniProt P30291)
AURKA (human) = AURKA (human) (UniProt O14965)

Chain of CHEK2 (human) (O96017 whole entry, looked up): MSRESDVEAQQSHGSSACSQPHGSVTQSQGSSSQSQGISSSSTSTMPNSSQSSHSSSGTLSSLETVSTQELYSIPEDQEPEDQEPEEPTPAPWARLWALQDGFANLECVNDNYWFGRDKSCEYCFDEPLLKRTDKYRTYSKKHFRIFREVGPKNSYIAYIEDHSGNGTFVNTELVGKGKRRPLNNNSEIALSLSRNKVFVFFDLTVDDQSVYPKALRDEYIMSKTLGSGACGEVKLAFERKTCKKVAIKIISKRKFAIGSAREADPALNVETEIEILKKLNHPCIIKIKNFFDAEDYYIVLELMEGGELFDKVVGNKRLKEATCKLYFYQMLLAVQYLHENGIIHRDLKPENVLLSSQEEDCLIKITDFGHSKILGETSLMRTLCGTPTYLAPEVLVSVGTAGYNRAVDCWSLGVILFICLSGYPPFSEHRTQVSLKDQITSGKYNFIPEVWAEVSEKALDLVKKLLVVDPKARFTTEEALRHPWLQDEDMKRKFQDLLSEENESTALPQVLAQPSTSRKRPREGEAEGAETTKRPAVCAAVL

SMILES: N/C(=N\N=C/c1ccc(-c2cccc([N+](=O)[O-])c2)o1)N[N+](=O)[O-]
- residual activity (BMX (human)): 90.1%
- residual activity (BRSK2 (human)): 106%
- residual activity (CDK6 CCND3 (human)): 94.7%
- residual activity (CHEK2 (human)): 104%
- residual activity (CLK2 (human)): 88.3%
- residual activity (CSK (human)): 98.5%
- residual activity (CSNK1D (human)): 99.8%
- residual activity (CSNK2A2 (human)): 107%
- residual activity (DAPK3 (human)): 103%
- residual activity (DMPK (human)): 102%
- residual activity (DYRK1B (human)): 104%
- residual activity (EPHA5 (human)): 100%
- residual activity (ERBB2 (human)): 100%
- residual activity (FES (human)): 101%
- residual activity (FGFR3 (human)): 99.6%
- residual activity (FGR (human)): 90.9%
- residual activity (FRK (human)): 90.1%
- residual activity (GRK6 (human)): 98.3%
- residual activity (GSK3B (human)): 117%
- residual activity (HIPK2 (human)): 103%
- residual activity (HIPK4 (human)): 102%
- residual activity (JAK2 JH1 JH2 (human)): 98.8%
- residual activity (MAP3K10 (human)): 101%
- residual activity (MAP4K4 (human)): 95.6%
- residual activity (MERTK (human)): 92.3%
- residual activity (NEK1 (human)): 97.7%
- residual activity (NEK11 (human)): 110%
- residual activity (NEK4 (human)): 103%
- residual activity (NTRK2 (human)): 82.4%
- residual activity (PRKCB1 (human)): 88.9%
- residual activity (PRKCD (human)): 94.2%
- residual activity (PRKCH (human)): 98.1%
- residual activity (PRKCI (human)): 92.3%
- residual activity (ROCK1 (human)): 91.7%
- residual activity (SGK3 (human)): 107%
- residual activity (SLK (human)): 101%
- residual activity (STK10 (human)): 99.6%
- residual activity (STK24 (human)): 87.7%
- residual activity (STK4 (human)): 96.5%
- residual activity (TEC (human)): 147%
- residual activity (WEE1 (human)): 100%

SMILES: N#Cc1c(NC(=O)c2cccc3ccccc23)sc2c1CCCC2
- residual activity (AURKA (human)): 101%
- residual activity (BMX (human)): 101%
- residual activity (BRSK2 (human)): 100%
- residual activity (CDK6 CCND3 (human)): 99%
- residual activity (CHEK2 (human)): 98.5%
- residual activity (CLK2 (human)): 101%
- residual activity (CSK (human)): 91.5%
- residual activity (CSNK1D (human)): 106%
- residual activity (CSNK2A2 (human)): 92.2%
- residual activity (DAPK3 (human)): 110%
- residual activity (DMPK (human)): 109%
- residual activity (DYRK1B (human)): 101%
- residual activity (EPHA5 (human)): 99.6%
- residual activity (ERBB2 (human)): 97.6%
- residual activity (FES (human)): 103%
- residual activity (FGFR3 (human)): 101%
- residual activity (FGR (human)): 98.1%
- residual activity (FRK (human)): 104%
- residual activity (GRK6 (human)): 108%
- residual activity (GSK3B (human)): 97.5%
- residual activity (HIPK4 (human)): 110%
- residual activity (JAK2 JH1 JH2 (human)): 103%
- residual activity (MAP3K10 (human)): 85.4%
- residual activity (MAP4K4 (human)): 88.9%
- residual activity (MERTK (human)): 97.9%
- residual activity (NEK1 (human)): 93.4%
- residual activity (NEK11 (human)): 105%
- residual activity (NEK4 (human)): 94.6%
- residual activity (NTRK2 (human)): 100%
- residual activity (PRKCB1 (human)): 90.9%
- residual activity (PRKCD (human)): 94.1%
- residual activity (PRKCH (human)): 97.9%
- residual activity (PRKCI (human)): 95.9%
- residual activity (ROCK1 (human)): 96.3%
- residual activity (SGK3 (human)): 107%
- residual activity (SLK (human)): 99.2%
- residual activity (STK10 (human)): 97.7%
- residual activity (STK24 (human)): 90.3%
- residual activity (STK4 (human)): 93.1%
- residual activity (TEC (human)): 111%
- residual activity (WEE1 (human)): 88.9%

SMILES: CCc1nc(-c2ccc(OC)cc2)[nH]c1-c1ccncc1
- residual activity (AURKA (human)): 93.7%
- residual activity (BMX (human)): 93.4%
- residual activity (BRSK2 (human)): 105%
- residual activity (CDK6 CCND3 (human)): 101%
- residual activity (CHEK2 (human)): 102%
- residual activity (CLK2 (human)): 106%
- residual activity (CSK (human)): 101%
- residual activity (CSNK1D (human)): 95.1%
- residual activity (CSNK2A2 (human)): 95.3%
- residual activity (DAPK3 (human)): 95.8%
- residual activity (DMPK (human)): 102%
- residual activity (DYRK1B (human)): 106%
- residual activity (EPHA5 (human)): 100%
- residual activity (ERBB2 (human)): 98.9%
- residual activity (FES (human)): 100%
- residual activity (FGFR3 (human)): 99.8%
- residual activity (FGR (human)): 97.2%
- residual activity (FRK (human)): 101%
- residual activity (GSK3B (human)): 108%
- residual activity (HIPK2 (human)): 93.6%
- residual activity (HIPK4 (human)): 90%
- residual activity (JAK2 JH1 JH2 (human)): 96.7%
- residual activity (MAP3K10 (human)): 102%
- residual activity (MAP4K4 (human)): 91.9%
- residual activity (MERTK (human)): 92.1%
- residual activity (NEK1 (human)): 98.9%
- residual activity (NEK11 (human)): 77.4%
- residual activity (NEK4 (human)): 95.2%
- residual activity (NTRK2 (human)): 105%
- residual activity (PRKCB1 (human)): 104%
- residual activity (PRKCD (human)): 98.5%
- residual activity (PRKCH (human)): 93%
- residual activity (PRKCI (human)): 101%
- residual activity (ROCK1 (human)): 105%
- residual activity (SGK3 (human)): 99.3%
- residual activity (SLK (human)): 99.7%
- residual activity (STK10 (human)): 96.8%
- residual activity (STK24 (human)): 93.2%
- residual activity (STK4 (human)): 106%
- residual activity (TEC (human)): 109%
- residual activity (WEE1 (human)): 89.1%
